Assay results taken from US20170000740A9, “COMBINATION THERAPEUTIC NANOPARTICLES” (UNIVERSITY OF GEORGIA RESEARCH FOUNDATION INC., priority 2013, published 2017).

System: human prostate cancer PC-3 cells
Test: Cytotoxic profile by MTT assay on human prostate cancer PC-3 cell line
Type: cell-based
Details: incubation time=48 h

Compound | IC50 (Homo sapiens) [µM] | IC50 [µM]
CC(=O)Oc1ccccc1C(=O)O [Aspirin] | > 100 | 
N.N.[Cl][Pt][Cl] [Cisplatin] |  | 14
